Laboratory results from ChEMBL document CHEMBL1201862, “PubChem BioAssay data set” (2004).
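Growth conditions: 96-well plates. Treatment: test compound, 48 hours, 5 concentrations. Analysis: linear interpolation between bracketing concentrations; unreached endpoints set to highest concentration. The concentration for 50% growth inhibition is given as GI50.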 Calls of active or inactive are those of the source. Rule as the data show it: active = GI50 up to about 1.1 µM and inactive = higher.

Key:
Assay in all cases: growth of human tumour cells (NCI), 48 h
[1] = test system: Malme-3M
[2] = test system: 786-0
[3] = test system: NCI-H226
[4] = test system: RPMI-8226
[5] = test system: EKVX
[6] = test system: SNB-19
[7] = test system: MCF7
[8] = test system: SF-268
[9] = test system: MDA-MB-231
[10] = test system: SN12C
[11] = test system: HT-29
[12] = test system: LOX IMVI
[13] = test system: SK-MEL-5
[14] = test system: UACC-257
[15] = test system: IGROV-1
[16] = test system: OVCAR-4
[17] = test system: NCI-H460
[18] = test system: MOLT-4
[19] = test system: COLO 205
[20] = test system: A498
[21] = test system: SNB-75
[22] = test system: HL-60
[23] = test system: HCT-116
[24] = test system: RXF 393
[25] = test system: T47D
[26] = test system: HOP-92
[27] = test system: Hs-578T
[28] = test system: OVCAR-3
[29] = test system: HCC 2998
[30] = test system: SK-MEL-28
[31] = test system: MDA-N
[32] = test system: SW-620
[33] = test system: TK-10
[34] = test system: HCT-15
[35] = test system: UACC-62
[36] = test system: SK-MEL-2
[37] = test system: SF-539
[38] = test system: K562
[39] = test system: CAKI-1
[40] = test system: UO-31
[41] = test system: HOP-62
[42] = test system: U-251
[43] = test system: SF-295
[44] = test system: ACHN
[45] = test system: CCRF-CEM
[46] = test system: OVCAR-5
[47] = test system: PC-3
[48] = test system: NCI/ADR-RES
[49] = test system: M14
[50] = test system: SR
[51] = test system: NCI-H522
[52] = test system: KM12
[53] = test system: SK-OV-3
[54] = test system: OVCAR-8
[55] = test system: A549
[56] = test system: DU-145
[57] = test system: NCI-H23
[58] = test system: MDA-MB-435
[59] = test system: BT-549

## CC1CC(C)C2=NOS3=C2C1=NO3 (stereo unspecified)
[1]
  GI50: 89.7 µM (inactive)
[2]
  GI50: > 100 µM (inactive)
[3]
  GI50: > 100 µM (inactive)
[4]
  GI50: > 100 µM (inactive)
[5]
  GI50: 40 µM (inactive)
[6]
  GI50: > 100 µM (inactive)
[7]
  GI50: 82.8 µM (inactive)
[8]
  GI50: > 100 µM (inactive)
[9]
  GI50: > 100 µM (inactive)
[10]
  GI50: > 100 µM (inactive)
[11]
  GI50: > 100 µM (inactive)
[12]
  GI50: > 100 µM (inactive)
[13]
  GI50: 30.8 µM (inactive)
[14]
  GI50: > 100 µM (inactive)
[15]
  GI50: 58.7 µM (inactive)
[16]
  GI50: > 100 µM (inactive)
[17]
  GI50: > 100 µM (inactive)
[18]
  GI50: 89.9 µM (inactive)
[19]
  GI50: 72.6 µM (inactive)
[20]
  GI50: 12.9 µM (inactive)
[21]
  GI50: 59.8 µM (inactive)
[22]
  GI50: > 100 µM (inactive)
[23]
  GI50: > 100 µM (inactive)
[24]
  GI50: > 100 µM (inactive)
[25]
  GI50: > 100 µM (inactive)
[26]
  GI50: > 100 µM (inactive)
[27]
  GI50: > 100 µM (inactive)
[28]
  GI50: > 100 µM (inactive)
[29]
  GI50: > 100 µM (inactive)
[30]
  GI50: > 100 µM (inactive)
[31]
  GI50: > 100 µM (inactive)
[32]
  GI50: > 100 µM (inactive)
[33]
  GI50: > 100 µM (inactive)
[34]
  GI50: > 100 µM
[35]
  GI50: 79.8 µM (inactive)
[36]
  GI50: > 100 µM (inactive)
[37]
  GI50: > 100 µM (inactive)
[38]
  GI50: 53.8 µM (inactive)
[39]
  GI50: > 100 µM (inactive)
[40]
  GI50: > 100 µM (inactive)
[41]
  GI50: > 100 µM (inactive)
[42]
  GI50: > 100 µM (inactive)
[43]
  GI50: > 100 µM (inactive)
[44]
  GI50: > 100 µM (inactive)
[45]
  GI50: > 100 µM (inactive)
[46]
  GI50: > 100 µM (inactive)
[47]
  GI50: > 100 µM (inactive)
[48]
  GI50: > 100 µM (inactive)
[49]
  GI50: > 100 µM (inactive)
[50]
  GI50: > 100 µM (inactive)
[51]
  GI50: > 100 µM (inactive)
[52]
  GI50: > 100 µM (inactive)
[53]
  GI50: > 100 µM (inactive)
[54]
  GI50: > 100 µM (inactive)
[55]
  GI50: > 100 µM (inactive)
[56]
  GI50: > 100 µM (inactive)
[57]
  GI50: > 100 µM (inactive)
[58]
  GI50: > 100 µM (inactive)

## COc1ccc(-c2c(C#N)c(S)n(NS(=O)(=O)c3ccc(C)cc3)c(=O)c2C#N)cc1
[1]
  GI50: 24.6 µM (inactive)
[2]
  GI50: 15.6 µM (inactive)
[3]
  GI50: 20 µM (inactive)
[4]
  GI50: 3.42 µM (inactive)
[5]
  GI50: 25.8 µM (inactive)
[6]
  GI50: 35.8 µM (inactive)
[7]
  GI50: 29.4 µM (inactive)
[8]
  GI50: 23.4 µM (inactive)
[9]
  GI50: 17.8 µM (inactive)
[10]
  GI50: 17.2 µM (inactive)
[11]
  GI50: 31.6 µM (inactive)
[12]
  GI50: 13.9 µM (inactive)
[13]
  GI50: 13.8 µM (inactive)
[14]
  GI50: 32 µM (inactive)
[15]
  GI50: 14.6 µM (inactive)
[16]
  GI50: 23.7 µM (inactive)
[17]
  GI50: 32.6 µM (inactive)
[18]
  GI50: 7.06 µM (inactive)
[19]
  GI50: 18.2 µM (inactive)
[20]
  GI50: 30.5 µM (inactive)
[21]
  GI50: 30.5 µM (inactive)
[22]
  GI50: 11.1 µM (inactive)
[23]
  GI50: 14.4 µM (inactive)
[24]
  GI50: 17.5 µM (inactive)
[26]
  GI50: 33.1 µM (inactive)
[29]
  GI50: 30.3 µM (inactive)
[30]
  GI50: 24.2 µM (inactive)
[31]
  GI50: 17.6 µM (inactive)
[32]
  GI50: 18.6 µM (inactive)
[33]
  GI50: 32.4 µM (inactive)
[34]
  GI50: 16 µM
[35]
  GI50: 15.6 µM (inactive)
[36]
  GI50: 15.3 µM (inactive)
[37]
  GI50: 14.6 µM (inactive)
[38]
  GI50: 18.7 µM (inactive)
[39]
  GI50: 44.5 µM (inactive)
[41]
  GI50: 29.6 µM (inactive)
[59]
  GI50: 13.4 µM (inactive)
[42]
  GI50: 29.4 µM (inactive)
[43]
  GI50: 30 µM (inactive)
[44]
  GI50: 16.4 µM (inactive)
[45]
  GI50: 4.06 µM (inactive)
[46]
  GI50: 16.7 µM (inactive)
[47]
  GI50: 18.2 µM (inactive)
[48]
  GI50: 20.3 µM (inactive)
[49]
  GI50: 17.7 µM (inactive)
[51]
  GI50: 14.8 µM (inactive)
[52]
  GI50: 15.3 µM (inactive)
[53]
  GI50: 32.8 µM (inactive)
[54]
  GI50: 20.2 µM (inactive)
[55]
  GI50: 27.5 µM (inactive)

## CN(C)c1n/c(=N/Cc2cccs2)ss1
[1]
  GI50: > 10 µM (inactive)
[2]
  GI50: 9.98 µM (inactive)
[3]
  GI50: > 10 µM (inactive)
[4]
  GI50: > 3.04 µM (inactive)
[5]
  GI50: > 10 µM (inactive)
[6]
  GI50: > 10 µM (inactive)
[7]
  GI50: > 10 µM (inactive)
[8]
  GI50: > 10 µM (inactive)
[9]
  GI50: > 10 µM (inactive)
[10]
  GI50: > 10 µM (inactive)
[11]
  GI50: > 10 µM (inactive)
[12]
  GI50: > 5.62 µM (inactive)
[13]
  GI50: > 10 µM (inactive)
[14]
  GI50: > 10 µM (inactive)
[15]
  GI50: > 10 µM (inactive)
[16]
  GI50: > 10 µM (inactive)
[17]
  GI50: > 10 µM (inactive)
[18]
  GI50: 1.72 µM (inactive)
[19]
  GI50: > 10 µM (inactive)
[20]
  GI50: > 10 µM (inactive)
[21]
  GI50: > 10 µM (inactive)
[22]
  GI50: 1.35 µM (inactive)
[23]
  GI50: > 10 µM (inactive)
[24]
  GI50: > 10 µM (inactive)
[25]
  GI50: > 10 µM (inactive)
[26]
  GI50: > 10 µM (inactive)
[27]
  GI50: > 10 µM (inactive)
[28]
  GI50: > 10 µM (inactive)
[29]
  GI50: > 10 µM (inactive)
[30]
  GI50: > 10 µM (inactive)
[31]
  GI50: > 10 µM (inactive)
[32]
  GI50: > 10 µM (inactive)
[33]
  GI50: > 10 µM (inactive)
[34]
  GI50: > 10 µM
[35]
  GI50: > 10 µM (inactive)
[37]
  GI50: > 10 µM (inactive)
[38]
  GI50: 3.4 µM (inactive)
[39]
  GI50: > 10 µM (inactive)
[40]
  GI50: > 10 µM (inactive)
[41]
  GI50: > 10 µM (inactive)
[42]
  GI50: > 10 µM (inactive)
[43]
  GI50: > 10 µM (inactive)
[44]
  GI50: > 10 µM (inactive)
[45]
  GI50: 0.173 µM (active)
[46]
  GI50: > 10 µM (inactive)
[47]
  GI50: > 10 µM (inactive)
[48]
  GI50: > 10 µM (inactive)
[49]
  GI50: > 10 µM (inactive)
[50]
  GI50: 0.573 µM (active)
[51]
  GI50: 2.11 µM (inactive)
[52]
  GI50: > 10 µM (inactive)
[53]
  GI50: > 10 µM (inactive)
[54]
  GI50: > 10 µM (inactive)
[55]
  GI50: > 10 µM (inactive)
[56]
  GI50: > 10 µM (inactive)
[57]
  GI50: > 10 µM (inactive)
[58]
  GI50: > 10 µM (inactive)
